Assays:
[1] = tested on: IL-2-induced JAK1/JAK3 signal pathway; experiment: IL-2-induced proliferation of KHYG-1 cells (JAK1/JAK3 signal); format: cell-based, human; conditions: Homo sapiens; KHYG-1 cell proliferation, IL-2 10 ng/mL, 72 hours; read-out: Inhibition activity IC50 on IL-2-induced JAK1/JAK3 signal pathway
Excerpt: The main physiological function of cytokine IL-2 is to stimulate and maintain the proliferation and differentiation of T cells. Generally, IL-2 dependent T cells cannot survive in in-vitro culture for a long time, but the addition of IL-2 can make them continue to proliferate. The signal pathway induced by IL-2 coupling with its receptor is mediated by JAK1/JAK3-STAT5, so the inhibitor of JAK1 and/or JAK3 can inhibit the proliferation of IL-2 dependent cells.
Human natural killer cell lymphoma cell line KHYG-1 was commercially available from Health Science Research Resources Bank (HSRRB), and relevant culture conditions referred to those from HSRRB.
The inhibition rate of the tested compound on IL-2-induced cell proliferation was calculated using Microsoft Excel.
After culture at 37° C. and 5% CO2 for 72 hours, alamarBlue™ Cell Viability Reagent was added to each well following the instructions.
(§1) The well in which neither compound nor cytokine was added was designated as 0% control well, and the fluorescence value in the wells in which the final concentration of compound was 0 was designated as 100% control. The inhibition activity C50 of the tested compound on JAK1/JAK3 could be calculated from the inhibition rate of the tested compound on IL-2-induced cell proliferation at different doses.

[2] = tested on: EPO-induced JAK2 signal pathway; experiment: EPO-induced proliferation of UT-7 cells (JAK2 signal); format: cell-based, human; conditions: Homo sapiens, UT7; UT-7 cell proliferation, EPO 10 ng/mL, 72 hours; read-out: Inhibition activity IC50 on EPO-induced JAK2 signal pathway
Procedure: The cytokine EPO, i.e. erythropoietin, can promote the proliferation and division of erythroid progenitor cells, and the signal pathway induced by EPO coupling with its receptor is mediated by JAK2-STAT5.
Human promegakaryocytic leukemia cell line UT-7 was commercially available from Cell Resource Center, Institute of Basic Medicine, Chinese Academy of Medical Sciences. The culture medium was RPIM1640 containing 10% FBS, and EPO was added for a final concentration of 10 ng/mL.
The inhibition rate of the tested compound on EPO-induced cell proliferation was calculated using Microsoft Excel.
UT-7 cell line was inoculated in 96-well plate with flat bottom at 15000 cells per well, each well was added with 10 ng/mL of human recombinant EPO (Human EPO PEPROTECH 100-64-10UG), along with tested compound respectively for a final concentration of 0, 100, 1000 or 10000 nM. After culture at 37° C. and 5% CO2 for 72 hours, alamarBlue™ Cell Viability Reagent was added to each well following the instructions. After incubation at 37° C. for color reaction, the fluorescence value at Ex530/Em590 was detected using Tecan Spark™ 10M multimode microplate reader.
as §1, with “[…]” for “0%”, “100” for “100%”, “[…] ofthe” for “C50 of the”, “JAK2” for “JAK1/JAK3”, “ofthe” for “of the”, “EPO-induced” for “IL-2-induced”

Row | Compound | IC50 [1] | IC50 [2]
1 | CONC(=O)c1cnc(Nc2cccc(F)n2)cc1Nc1cccc(C2CC2)c1N(C)S(C)(=O)=O [Example 86] | > 10 µM | > 10 µM
2 | CONC(=O)c1cnc(Nc2ccc(C(F)(F)F)cn2)cc1Nc1ccccc1N(C)S(C)(=O)=O [Example 92, N-methoxy-4-((2-(N-methylmethanesulfonamido)phenyl)amino)-6-((5-(trifluoromethyl)pyridin-2-yl)amino)nicotinamide] | > 10 µM | > 10 µM
3 | CONC(=O)c1cnc(NC(=O)C2CC2)cc1Nc1cccc(-c2noc(C)n2)c1OC [Example 55, 6-(cyclopropylcarboxamido)-N-methoxy-4-((2-methoxy-3-(5-methyl-1,2,4-oxadiazol-3-yl)phenyl)amino)nicotinamide] | > 10 µM | > 10 µM
4 | CONC(=O)c1cnc(NC(=O)C2CC2)cc1Nc1cccc(C(F)(F)F)c1N(C)S(C)(=O)=O [Example 82, 6-(cyclopropylcarboxamido)-N-methoxy-4-((2-(N-methylmethanesulfonamido)-3-(trifluoromethyl)phenyl)amino)nicotinamide] | > 10 µM | > 10 µM
5 | CCONC(=O)c1cnc(Nc2ccc(CO)cn2)cc1Nc1ccc(C2CC2)cc1N(C)S(C)(=O)=O [Example 122, 4-((4-cyclopropyl-2-(N-methylmethanesulfonamido)phenyl)amino)-N-ethoxy-6-((5-(hydroxymethyl)pyridin-2-yl)amino)nicotinamide] | > 10 µM | > 10 µM
6 | C#Cc1ccc(Nc2cc(Nc3ncccn3)ncc2C(=O)NOCC)c(N(C)S(C)(=O)=O)c1 [Example 163, N-ethoxy-4-((4-ethynyl-2-(N-methylmethanesulfonamido)phenyl)amino)-6-(pyrimidin-2-ylamino)nicotinamide] | > 10 µM | > 10 µM
7 | CONC(=O)c1cnc(NC(=O)C2CC2)cc1Nc1cccc(-c2cnn(C)c2)c1N(C)S(C)(=O)=O [Example 87, 6-(cyclopropylcarboxamido)-N-methoxy-4-((3-(1-methyl-1H-pyrazol-4-yl)-2-(N-methylmethanesulfonamido)phenyl)amino)nicotinamide] | > 10 µM | > 10 µM
8 | CONC(=O)c1cnc(Nc2cccc(F)n2)cc1Nc1cccc(C(F)(F)F)c1N(C)S(C)(=O)=O [Example 83, 6-((6-fluoropyridin-2-yl)amino)-N-methoxy-4-((2-(N-methylmethanesulfonamido)-3-(trifluoromethyl)phenyl)amino)nicotinamide] | > 10 µM | > 10 µM
9 | CONC(=O)c1cnc(NC(=O)C2CC2)cc1Nc1ccccc1P(C)(C)=O [Example 73, 6-(cyclopropylcarboxamido)-4-((2-(dimethylphosphoryl)phenyl)amino)-N-methoxy nicotinamide] | > 10 µM | > 10 µM
10 | CONC(=O)c1cnc(Nc2cccc(F)n2)cc1Nc1cccc(Cl)c1N(C)S(C)(=O)=O [Example 76, 4-((3-chloro-2-(N-methylmethanesulfonamido)phenyl)amino)-6-((6-fluoropyridin-2-yl)amino)-N-methoxy nicotinamide] | > 10 µM | > 10 µM
11 | CONC(=O)c1nnc(NC(=O)C2CC2)cc1Nc1cccc(-c2ccn(C)n2)c1OC [Example 53, 6-(cyclopropylcarboxamido)-N-methoxy-4-((2-methoxy-3-(1-methyl-1H-pyrazol-3-yl)phenyl)amino)pyridazine-3-carboxamide] | > 10 µM | > 10 µM
12 | CONC(=O)c1cnc(Nc2cccc(F)n2)cc1Nc1ccccc1P(C)(C)=O [Example 74, 4-((2-(dimethylphosphoryl)phenyl)amino)-6-((6-fluoropyridin-2-yl)amino)-N-methoxy nicotinamide] | > 10 µM | > 10 µM
13 | CCONC(=O)c1cnc(Nc2cc(C)nc(C)n2)cc1Nc1ccc(Cl)cc1N(C)S(=O)(=O)C1CC1 [Example 184] | > 10 µM | > 10 µM
14 | CONC(=O)c1cnc(NC(=O)C2CC2)cc1Nc1ccccc1S(C)(=O)=O [Example 89] | > 10 µM | > 10 µM
15 | CONC(=O)c1cnc(Nc2ccc(F)cn2)cc1Nc1cccc(-c2ccn(C)n2)c1OCC(F)(F)F [Example 51, 6-((5-fluoropyridin-2-yl)amino)-N-methoxy-4-((3-(1-methyl-1H-pyrazol-3-yl)-2-(2,2,2-trifluoroethoxy)phenyl)amino)nicotinamide] | > 10 µM | > 10 µM
16 | CONC(=O)c1cnc(NC(=O)C2CC2)cc1Nc1ccccc1S(=O)(=O)N(C)C [Example 34, 6-(cyclopropylcarboxamido)-4-((2-(N,N-dimethylaminosulfonyl)phenyl)amino)-N-methoxy nicotinamide] | > 10 µM | > 10 µM
17 | CCONC(=O)c1cnc(Nc2ccc(C)nc2)cc1Nc1ccc(C2CC2)cc1N(C)S(C)(=O)=O [Example 148, 4-((4-cyclopropyl-2-(N-methylmethanesulfonamido)phenyl)amino)-N-ethoxy-6-((6-methylpyridin-3-yl)amino)nicotinamide] | > 10 µM | > 10 µM
18 | CCONC(=O)c1cnc(Nc2ncccn2)cc1Nc1ccc(C2CC2)cc1N(C)S(C)(=O)=O [Example 124, 4-((4-cyclopropyl-2-(N-methylmethanesulfonamido)phenyl)amino)-N-ethoxy-6-(pyrimidin-2-ylamino)nicotinamide] | > 10 µM | > 10 µM
19 | CONC(=O)c1nnc(NC(=O)C2CC2)cc1Nc1cccc(-c2ncn(C)n2)c1OC [Example 52, 6-(cyclopropylcarboxamido)-N-methoxy-4-((2-methoxy-3-(1-methyl-1H-1,2,4-triazol-3-yl)phenyl)amino)pyridazine-3-carboxamide] | > 10 µM | > 10 µM
20 | CCONC(=O)c1cnc(Nc2ccn(C)n2)cc1Nc1ccc(N2CCOCC2)cc1N(C)S(C)(=O)=O [Example 137] | > 10 µM | > 10 µM
21 | CONC(=O)c1cnc(NC(=O)C2CC2)cc1Nc1ccc2cnn(C)c2c1 [Example 28, 6-(cyclopropylcarboxamido)-N-methoxy-4-((1-methyl-1H-indazol-6-yl)amino)nicotinamide] | > 10 µM | > 10 µM
22 | CONC(=O)c1cnc(Nc2cccnc2OC)cc1Nc1cccc(Cl)c1N(C)S(C)(=O)=O [Example 78, 4-((3-chloro-2-(N-methylmethanesulfonamido)phenyl)amino)-N-methoxy-6-((2-methoxypyridin-3-yl)amino)nicotinamide] | > 10 µM | > 10 µM
23 | CONC(=O)c1cnc(NC(=O)C2CC2)cc1Nc1cccnc1N(C)S(C)(=O)=O [Example 35, 6-(cyclopropylcarboxamido)-N-methoxy-4-((2-(N-methylmethanesulfonamido)pyridin-3-yl)amino)nicotinamide] | > 10 µM | > 10 µM
24 | CCONC(=O)c1cnc(Nc2cnn(C)c2)cc1Nc1ccc(C2CC2)cc1N(C)S(C)(=O)=O [Example 140, 4-((4-cyclopropyl-2-(N-methylmethanesulfonamido)phenyl)amino)-N-ethoxy-6-((1-methyl-1H-pyrazol-4-yl)amino)nicotinamide] | > 10 µM | > 10 µM
25 | CONC(=O)c1cnc(NC(=O)C2CC2)cc1Nc1ccc(OC)nc1N(C)S(C)(=O)=O [Example 7, 6-(cyclopropylcarboxamido)-N-methoxy-4-((6-methoxy-2-(N-methylmethanesulfonamido)pyridin-3-yl)amino)nicotinamide] | > 10 µM | > 10 µM
26 | N#CC[C@H](C1CCCC1)n1cc(-c2ncnc3[nH]ccc23)cn1 [ruxolitinib, reference compound] | – | < 0.1 µM
27 | CCONC(=O)c1cnc(Nc2ccc(C3CC3)cn2)cc1Nc1ccccc1N(C)S(C)(=O)=O [Example 27, 6-((5-cyclopropylpyridin-2-yl)amino)-N-ethoxy-4-((2-(N-methylmethanesulfonamido)phenyl)amino)nicotinamide] | > 10 µM | > 10 µM
28 | CONC(=O)c1cnc(Nc2cccc(F)n2)cc1Nc1cccc(-c2ccn(C)n2)c1OC [Example 30, 6-((6-fluoropyridin-2-yl)amino)-N-methoxy-4-((2-methoxy-3-(1-methyl-1H-pyrazol-3-yl)phenyl)amino)nicotinamide] | > 10 µM | > 10 µM

— patent US20240101548A1, “HYDROXAMATE COMPOUND, PREPARATION METHOD THEREFOR AND APPLICATION THEREOF” (SHENZHEN CHIPSCREEN BIOSCIENCES CO., LTD., priority 2020, published 2024)
